Laboratory results published in PMC10788941, “Solubilizer Tag Effect on PD-L1/Inhibitor Binding Properties for m-Terphenyl Derivatives” (ACS Medicinal Chemistry Letters, 2023).

Assays:
[1] = biological target: T1, PD-1/PD-L1 immune checkpoint (Homo sapiens, UniProt Q9NZQ7); test: cell-based PD-1/PD-L1 immune checkpoint blockade (ICB) assay, Jurkat-ECs with CHO/TCRAct/PD-L1 cells, luciferase readout; details: for activation of Jurkat-ECs (fold induction): relative to DMSO-treated cells; for dose-dependent activation of Jurkat-ECs and toxicity: different concentrations, Figure S1
T1 construct: host or cells: CHO/TCRAct/PD-L1 cells (PD-L1); Jurkat-ECs (PD-1)
T1 sequence (Q9NZQ7 19-290): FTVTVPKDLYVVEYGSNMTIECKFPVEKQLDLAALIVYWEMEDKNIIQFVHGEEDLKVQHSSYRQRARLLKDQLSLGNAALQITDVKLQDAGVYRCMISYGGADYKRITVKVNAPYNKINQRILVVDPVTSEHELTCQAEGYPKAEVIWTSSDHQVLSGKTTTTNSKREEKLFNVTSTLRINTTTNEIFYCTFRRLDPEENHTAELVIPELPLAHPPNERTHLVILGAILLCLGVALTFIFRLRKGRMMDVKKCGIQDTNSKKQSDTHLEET
Procedure: 4.4. PD-1/PD-L1 immune checkpoint blockade (ICB) assay
For the in vitro analysis of the bioactivity of the molecules an Immune Checkpoint Blockade assay was performed 4 CHO/TCRAct/PD -L1 cells (Promega), overexpressing an artificial TCR - activator construct and PD -L1, were seeded on 96 -well white plates at the density of 10 000 cells/well.
The next day, the cells were overlaid with the effector Jurkat T cells (Jurkat -ECs, Promega, 20 000 cells/well), overexpressing PD -1 and containing construct assuring an NFAT -induced expression of luciferase, either in the presence of the indicated concentrations of the compounds with DMSO -only as a control (the concentration of DMSO was kept constant at 0.1%) or durvalumab (Selleckchem), as a positive control, with untreated cells as controls. Activation of the Jurkat -ECs, reflected by luciferase activity, was monitored by luminescence measurements after 6 h of incubation (37°C, 5%CO 2), and […]
20 min of additional incubation with the Bio-GloTM Assay reagent (Promega) at room temperature.
The luminescence was read on the Spark microplate reader (Tecan). The data is presented as fold induction of the luminescence signal relative to either untreated (for durvalumab) or DMSO-treated (for compounds) cells. Data points represent mean ± SD values from duplicates. […]
HCl, 0.25 mM oxidized glutathione, and 0.25 mM reduced glutathione. After the refolding step, the protein was dialyzed 3 times against buffer containing 10 mM Tris-HCl pH 8.0 and 20 mM NaCl. The final step of purification consisted of size exclusion chromatography using a Superdex 75 column and 10 mM Tris- HCl, 20 mM NaCl based buffer for crystallization or PBS buffer for NMR based experiments. The correctly folded state and purity of the PD-L1 protein were checked by NMR and […]
The freshly purified protein was concentrated to 5 mg/mL and then mixed in a 1:3 molar ratio with an excess of the 2f inhibitor, finally the solution was centrifuged for 1 minute at max speed. The clarified solution was then used for screening using multiple available commercial screens. The diffraction quality crystals were obtained from a sitting drop set up at room temperature with a buffer containing 27 % w/v PEG 3350, 0.1 M Bis-Tris propane, pH 7.0 and 0.2 M Lithium sulfate. Crystals were cryo-protected using glycerol and flash frozen with liquid nitrogen.
The X-ray diffraction data were collected at the BL13 - XALOC beamline at ALBA (Barcelona, Spain).6The data were indexed, integrated, and scaled using XDS, SCALE, and Aimless.
7–9 The initial phase estimates was obtained by molecular replacement calculated in Phaser using PDB:5C3T as a model.10 The refinement was performed using CCP4cloud11 and verified using Coot .12–14 The structure was deposited in the Protein Data Bank with accession number 8R6Q. The protein-ligand interactions were assessed using PLIP server15 and visualized using PyMol (The PyMOL Molecular Graphics System, Version 2.0 Schrödinger, LLC).
4.6. Crystal structure determination for compound 2a
X-ray diffraction data for single crystals of compound 2a was collected using XtalLAB Synergy-S four-circle diffractometer with a mirror monochromator and a microfocus CuKα radiation source (λ = 1.5418 Å). The CryoStream cryostat system was used to allow low-temperature

[2] = biological target: T2, PD-1/PD-L1 complex (hPD-1, hPD-L1) (Homo sapiens, UniProt Q9NZQ7); test: HTRF assay of PD-1/PD-L1 complex disruption (Cis-Bio kit); assay type: binding; details: disruption of PD-1/PD-L1 complex, n = 2
T2 construct: purchased Cis-Bio
T2 sequence (Q9NZQ7 19-238 limits assumed, one chain of several): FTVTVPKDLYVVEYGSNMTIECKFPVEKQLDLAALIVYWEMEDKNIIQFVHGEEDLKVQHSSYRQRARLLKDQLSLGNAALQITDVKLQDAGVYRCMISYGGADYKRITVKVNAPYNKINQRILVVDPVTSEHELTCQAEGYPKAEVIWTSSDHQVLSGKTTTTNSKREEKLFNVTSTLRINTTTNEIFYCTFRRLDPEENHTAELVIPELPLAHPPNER
From the text: 4.3. Homogenous Time-Resolved Fluorescence
HTRF (Homogeneous Time Resolved Fluorescence) is a widely used technology for homogenous analyte measurement, particularly in high-throughput screening for drug target studies.
This technology combines fluorescence resonance energy transfer (FRET) with tim e-resolved measurement. In TR-FRET assays, a signal is generated when a donor and an acceptor molecule are in proximity (so-called FRET distance), transfer energy through FRET. Both fluorophores are attached to the monoclonal antibodies that are then specifically detecting particular tags on target proteins.
The commercially available Cis-Bio assay kit was used to perform the HTRF assay. Following the standard protocol, the measurement was carried out at a 20 µL final volume with a 5 nM concentration of hPD-1 and 50 nM concentration of hPD-L1 in the final formulation. Separate dilution […]
compounds. Analyte and detection reagents (anti-analyte conjugated donor and acceptor conjugated […]
plate was left for 1 h of incubation and it was read on an HTRF certified microplate reader Tecan Spark
20M. Output data were subjected to background subtraction on negative control (no PD-1), and normalization in correlation to the positive control (no inhibitor) and averaged. Resulting data points were then fitted with Hill’s equation to generate IC50 using Mathematica 12. […]

Row | IC50 [2] | Compound | also measured
1 | 0.94 ± 0.01 nM | COc1cc(-c2cccc(-c3ccc4c(c3)OCCO4)c2Cl)ccc1CN1CCC(C(=O)NO)C1 (centres unmarked) [2b] | activation of Jurkat-ECs (fold induction) ([1]; compound 1 μM): bioactivity was observed
2 | 56 ± 1.33 nM | COc1cc(-c2cccc(-c3ccc4c(c3)OCCO4)c2Cl)ccc1CN1CCCCC1C(=O)NN(C)C (centres unmarked) [3d] | 
3 | 19.3 ± 1.22 nM | COc1cc(-c2cccc(-c3ccc4c(c3)OCCO4)c2Cl)ccc1CN1CCCC(C(=O)NC(CO)(CO)CO)C1 (centres unmarked) [4h] | 
4 | < 0.5 nM | COc1cc(-c2cccc(-c3ccc4c(c3)OCCO4)c2Cl)ccc1CN1CCC(C(=O)NN(C)C)CC1 [5d] | 
5 | 37 ± 1.75 nM | COc1cc(-c2cccc(-c3ccc4c(c3)OCCO4)c2Cl)ccc1CN1CCCC(C(=O)NN(C)C)C1 (centres unmarked) [4d] | 
6 | < 0.5 nM | COc1cc(-c2cccc(-c3ccc4c(c3)OCCO4)c2Cl)ccc1CN1CCC(C(=O)NC(CO)(CO)CO)CC1 [5h] | 
7 | < 0.5 nM | COc1cc(-c2cccc(-c3ccc4c(c3)OCCO4)c2Cl)ccc1CN1CCC(C(=O)NN)C1 (centres unmarked) [2c] | 
8 | < 0.5 nM | COc1cc(-c2cccc(-c3ccc4c(c3)OCCO4)c2Cl)ccc1CN1CCCC1C(=O)NCCN (centres unmarked) [1e] | 
9 | 1.1 ± 0.07 nM | COc1cc(-c2cccc(-c3ccc4c(c3)OCCO4)c2Cl)ccc1CN1CCC(C(=O)O)C1 (centres unmarked) [2a] | 
10 | 12 ± 2.01 nM | COc1cc(-c2cccc(-c3ccc4c(c3)OCCO4)c2Cl)ccc1CN1CCC(C(=O)NN(C)C)C1 (centres unmarked) [2d] | activation of Jurkat-ECs (fold induction) ([1]; compound 6.4 μM): activity was retained; dose-dependent activation of Jurkat-ECs and toxicity [1]: highest dose-dependent activity and lowest toxicity
11 | < 0.5 nM | COc1cc(-c2cccc(-c3ccc4c(c3)OCCO4)c2Cl)ccc1CN1CCC(C(=O)NC(CO)CO)C1 (centres unmarked) [2g] | activation of Jurkat-ECs (fold induction) ([1]; compound 1 μM): bioactivity was observed; activation of Jurkat-ECs (fold induction) ([1]; compound 6.4 μM): activity was retained; dose-dependent activation of Jurkat-ECs and toxicity [1]: highest dose-dependent activity and lowest toxicity
12 | < 0.5 nM | COc1cc(-c2cccc(-c3ccc4c(c3)OCCO4)c2Cl)ccc1CN1CCC(C(=O)NC(CO)(CO)CO)C1 (centres unmarked) [2h] | activation of Jurkat-ECs (fold induction) ([1]; compound 1 μM): bioactivity was observed; activation of Jurkat-ECs (fold induction) ([1]; compound 6.4 μM): T cell activation dropped down
13 | 0.9 ± 0.05 nM | COc1cc(-c2cccc(-c3ccc4c(c3)OCCO4)c2Cl)ccc1CN1CCCCC1C(=O)NCCO (centres unmarked) [3f] | 
14 | 1.09 ± 0.07 nM | COc1cc(-c2cccc(-c3ccc4c(c3)OCCO4)c2Cl)ccc1CN1CCCC(C(=O)NO)C1 (centres unmarked) [4b] | 
15 | 477 ± 83.5 nM | COc1cc(-c2cccc(-c3ccc4c(c3)OCCO4)c2Cl)ccc1CN1CCCCC1C(=O)NC(CO)(CO)CO (centres unmarked) [3h] | 
16 | < 0.5 nM | COc1cc(-c2cccc(-c3ccc4c(c3)OCCO4)c2Cl)ccc1CN1CCC(C(=O)NC(CO)CO)CC1 [5g] | 
17 | 63.6 ± 1.86 nM | COc1cc(-c2cccc(-c3ccc4c(c3)OCCO4)c2Cl)ccc1CN1CCCCC1C(=O)NC(CO)CO (centres unmarked) [3g] | 

Row | IC50 [2] | Compound | also measured
18 | > 1000 nM | COc1cc(-c2cccc(-c3ccc4c(c3)OCCO4)c2Cl)ccc1CN1CCCC1C(=O)NO (centres unmarked) [1b] | 
19 | 76.2 ± 2.35 nM | COc1cc(-c2cccc(-c3ccc4c(c3)OCCO4)c2Cl)ccc1CN1CCCC1C(=O)NN (centres unmarked) [1c] | 
20 | < 0.5 nM | COc1cc(-c2cccc(-c3ccc4c(c3)OCCO4)c2Cl)ccc1CN1CCC(C(=O)NCCN)CC1 [5e] | 
21 | 766 ± 71.5 nM | COc1cc(-c2cccc(-c3ccc4c(c3)OCCO4)c2Cl)ccc1CN1CCC(C(=O)NO)CC1 [5b] | 
22 | < 0.5 nM | COc1cc(-c2cccc(-c3ccc4c(c3)OCCO4)c2Cl)ccc1CN1CCCC1C(=O)NCCO (centres unmarked) [1f] | 
23 | < 0.5 nM | COc1cc(-c2cccc(-c3ccc4c(c3)OCCO4)c2Cl)ccc1CN1CCCC1C(=O)NC(CO)(CO)CO (centres unmarked) [1h] | 
24 | < 0.5 nM | COc1cc(-c2cccc(-c3ccc4c(c3)OCCO4)c2Cl)ccc1CN1CCC(C(=O)NCCO)C1 (centres unmarked) [2f] | dose-dependent activation of Jurkat-ECs and toxicity [1]: highest dose-dependent activity and lowest toxicity
25 | < 0.5 nM | COc1cc(-c2cccc(-c3ccc4c(c3)OCCO4)c2Cl)ccc1CN1CCCC1C(=O)NN(C)C (centres unmarked) [1d] | 
26 | < 0.5 nM | COc1cc(-c2cccc(-c3ccc4c(c3)OCCO4)c2Cl)ccc1CN1CCCC(C(=O)NCCO)C1 (centres unmarked) [4f] | 
27 | < 0.5 nM | COc1cc(-c2cccc(-c3ccc4c(c3)OCCO4)c2Cl)ccc1CN1CCCC1C(=O)NC(CO)CO (centres unmarked) [1g] | 
28 | 79.9 ± 5.7 nM | COc1cc(-c2cccc(-c3ccc4c(c3)OCCO4)c2Cl)ccc1CN1CCCC(C(=O)NN)C1 (centres unmarked) [4c] | 
29 | 4.94 ± 0.37 nM | COc1cc(-c2cccc(-c3ccc4c(c3)OCCO4)c2Cl)ccc1CN1CCC(C(=O)NCCN)C1 (centres unmarked) [2e] | activation of Jurkat-ECs (fold induction) ([1]; compound 1 μM): bioactivity was observed; activation of Jurkat-ECs (fold induction) ([1]; compound 6.4 μM, 6.4 µM): T cell activation dropped down and tox.
30 | 96.5 ± 2.71 nM | COc1cc(-c2cccc(-c3ccc4c(c3)OCCO4)c2Cl)ccc1CN1CCC(C(=O)NN)CC1 [5c] | 
31 | < 0.5 nM | COc1cc(-c2cccc(-c3ccc4c(c3)OCCO4)c2Cl)ccc1CN1CCC(C(=O)O)CC1 [5a] | 
32 | 0.55 ± 0.03 nM | COc1cc(-c2cccc(-c3ccc4c(c3)OCCO4)c2Cl)ccc1CN1CCC(C(=O)NCCO)CC1 [5f] | 
33 | 16.7 ± 1.63 nM | COc1cc(-c2cccc(-c3ccc4c(c3)OCCO4)c2Cl)ccc1CN1CCCCC1C(=O)NN (centres unmarked) [3c] | 
34 | < 0.5 nM | COc1cc(-c2cccc(-c3ccc4c(c3)OCCO4)c2Cl)ccc1CN1CCCC1C(=O)O (centres unmarked) [1a] | 

Row | Compound | IC50 [2] | also measured
35 | COc1cc(-c2cccc(-c3ccc4c(c3)OCCO4)c2Cl)ccc1CN1CCCCC1C(=O)O (centres unmarked) [3a] | 0.58 ± 0.05 nM | 
36 | COc1cc(-c2cccc(-c3ccc4c(c3)OCCO4)c2Cl)ccc1CN1CCCC(C(=O)O)C1 (centres unmarked) [4a] | < 0.5 nM | 
